Results as given in PMC12684391, “Mechanistic insights into the monotherapy and combination potential of FEN1 inhibition in cancer therapy” (Nucleic Acids Research, 2025).

How the values were obtained:
[1] = system: MMEJ (resection independent reporter); assay: Extrachromosomal MMEJ reporter assay, resection independent, HEK-293; format: cell-based
Protocol: MMEJ resection-independent and MMEJ resection-dependent reporter assays performed as previously described. In brief, HEK-293 cells were resuspended in supplemented SF nucleofection solution (Lonza) containing nanoluciferase DNA substrate and Firefly luciferase plasmid (Promega) at a ratio of 100 μl SF: 1500 ng nanoluciferase substrate: 1000 ng Firefly plasmid: ∼1.5 × 10^6 cells. Cells were electroporated and recovered into fresh media before seeding into a 96-well plate pre-dosed with compounds and DMSO control.
After 24 h, Firefly and NanoLuc levels were detected using the Nano-Glo® Dual-Luciferase® Reporter Assay system (Promega) as per the manufacturer’s instructions. NanoLuc luminescence (reporter) was normalized to Firefly luminescence (control) to determine substrate repair. Percentage repair was calculated relative to the DMSO control.

FEN1(1-380)-6His = biological target: T1, FEN1(1-380)-6His (Homo sapiens, UniProt P39748); assay: Surface plasmon resonance on immobilized FEN1; format: binding; conditions: SPR, 25°C, mean of n = 4 surfaces; for Kd: 1:1 Langmuir model; for residence time: read-out: τ (residence time)
T1 construct: FEN1(1-380)-6His was immobilized on a CM5 chip; made in house; host or cells: Escherichia coli
Protocol: The kinetic parameters of the interaction between FEN1 and small molecules were assessed by surface plasmon resonance (SPR). FEN1(1-380)-6His was immobilized on a CM5 chip (Series S, Cytiva, Uppsala, Sweden) via standard amine coupling procedure at 25°C. Prior to immobilization, the carboxymethylated surface of the CM5 chip was activated with 400 mM 1-ethyl-3-(3-dimethylaminopropyl)-carbodiimide and 100 mM N-hydroxysuccinimide for 7 min. FEN1 was diluted to 10 µg/ml in 10 mM Bis–Tris pH 6.50 and injected in the presence of 2 µM of an active site binder on the CM5 chip for 3 or 4 min resulting in immobilization levels between 1300 and 3100 response units (RU). The remaining activated carboxymethylated groups were blocked with a 7 min injection of 1 M ethanolamine pH 8.50. HBS-N pH 7.40 was used as the background buffer during immobilization.
All compounds were prediluted in DMSO, diluted 1:50 in running buffer (20 mM Tris–HCl pH 7.50, 100 mM KCl, 1 mM DTT, 5 mM MgCl2, 0.05% Tween-20, and 2% DMSO) and injected at 10 different concentrations using two-fold dilution series. A DMSO solvent correction (10 steps, 1.4%–2.8%) was performed to account for variations in bulk signal and to achieve high-quality data. Interaction analysis cycles consisted of a 150 s sample injection (30 μl/min; association phase) followed by 300 s of buffer flow (dissociation phase).
Experiments were performed on a Biacore 8K+ (Cytiva, Uppsala, Sweden) at 25°C and the interactions were evaluated using the Biacore Insight evaluation software (version 5.0). All sensorgrams were processed by first subtracting the signal of the control surface (reference spot) from the binding response, followed by subtraction of the buffer blank injection from the reaction spot (double referencing). All datasets were fitted to a simple 1:1 Langmuir interaction model to determine the kinetic rate constants (using as offset RI = const = 0 and for Rmax either global or local, if the surface generation was not complete between consecutive cycles). Reported kinetic parameters are mean values from four independent FEN1 surfaces (n = 4).

DLD-1 BRCA2KO cells = assay: Cell viability assay (AlamarBlue), 7 days; format: cell-based
Protocol: Cells were seeded in 96-well plates and treated the day after seeding with a serial dilution of compounds in technical duplicates. After 7 days, viability was analyzed using the AlamarBlue reagent (BioRad). AlamarBlue was added in an amount equal to 10% of the volume in the well and after a 4–6 h incubation viability was determined by fluorescence analysis using a standard plate reader. Fluorescence was normalized to vehicle treated control for each cell line, and data were fitted in Genedata Screener to generate compound sensitivity curves and determine IC50 or EC50 (half maximal inhibitory/effective concentration) values as indicated.

[2] = system: FEN1 chromatin enrichment in HeLa cells; assay: Chromatin retention assay (immunofluorescence, CSK-extracted cells); format: cell-based; conditions: 24 h treatment
Protocol: HeLa cells were seeded at a density of 4000 cells per well in 100 μl of media in collagen-coated 96-well plates (Revvity, #6055700). Sixteen to twenty-four hours after seeding, compounds were dispensed using the D300e digital dispenser (Tecan) to generate a multipoint dose–response curve, equalized to final DMSO concentration. After 24 h, cells were washed with phosphate buffered saline (PBS) and pre-extracted with 50 μl of ice-cold cytoskeletal (CSK) buffer [10 mM PIPES pH 6.8 (Sigma–Aldrich, P8203-50G), 100 mM NaCl (VWR, 27810.295), 300 mM sucrose (Sigma–Aldrich, S0389-500G), 1.5 mM MgCl2 (VWR, 8760.29), 5 mM EDTA (Sigma–Aldrich, E7889-100ML), 0.4% Triton […] (Sigma–Aldrich, T9285-500ML)], for 4 min on ice. Cells were then washed with PBS and fixed in 4% paraformaldehyde (PFA) (ChemCruz, sc-281692) for 10 min at room temperature.
For immunofluorescence staining, cells were washed with PBS then blocked and permeabilized with PBS containing 0.5% bovine serum albumin (BSA) and 0.5% Triton X-100 (blocking buffer) for 1 h at room temperature. Cells were then stained with the indicated markers (FEN1 or PARP1) by incubation with primary antibodies (Supplementary Table S5) diluted in blocking buffer, at room temperature for 4 h (FEN1) or overnight at 4°C (PARP1). […]

T1 sequence (P39748 whole entry): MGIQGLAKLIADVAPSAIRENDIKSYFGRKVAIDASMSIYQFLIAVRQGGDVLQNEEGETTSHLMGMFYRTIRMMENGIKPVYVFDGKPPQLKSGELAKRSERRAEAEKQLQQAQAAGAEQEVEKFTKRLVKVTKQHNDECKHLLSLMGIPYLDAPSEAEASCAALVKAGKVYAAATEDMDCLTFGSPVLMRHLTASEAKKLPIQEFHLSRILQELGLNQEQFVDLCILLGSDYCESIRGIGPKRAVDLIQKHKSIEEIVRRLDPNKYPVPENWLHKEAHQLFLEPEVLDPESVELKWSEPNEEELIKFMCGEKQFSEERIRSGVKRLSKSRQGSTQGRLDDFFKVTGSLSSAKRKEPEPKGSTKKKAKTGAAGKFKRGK

| Kd (FEN1(1-380)-6His) | koff (FEN1(1-380)-6His) | kon (FEN1(1-380)-6His) | residence time (FEN1(1-380)-6His) | EC50 ([1]; Homo sapiens, HEK293, resection independent reporter, HEK-293, 24 h, read-out: MMEJ inhibition EC50) | EC50 (DLD-1 BRCA2KO cells; Homo sapiens, 168 h, DLD-1 BRCA2KO, 7 days, AlamarBlue, N = 3) | EC50 ([2]; Homo sapiens, unchallenged HeLa cells) | SMILES | Inhibited MMEJ ([1]; both reporters, HEK-293) | Sensitivity of cell lines (viability) (DLD-1 BRCA2KO cells; DLD-1 and DLD-1 BRCA2KO, 7 days, AlamarBlue, compared with MSC778) | Chromatin enrichment (of either FEN1 or PARP1) and DNA damage signalling ([2]; HeLa cells) | MMEJ potency relative to ART558 ([1]; lower potency than ART558, both reporters) | Sensitivity of DLD-1 BRCA2KO relative to parental DLD-1 cells (DLD-1 BRCA2KO cells; more sensitive than isogenic DLD-1 wild-type) |
| --- | --- | --- | --- | --- | --- | --- | --- | --- | --- | --- | --- | --- |
| 23 nM | 0.0034 s⁻¹ | 150000 M⁻¹ s⁻¹ | 4.8 min |  |  |  | C[C@@H](Oc1nn2c(c(O)c1=O)C(=O)N1CCOC[C@@H]1C2)c1ccc2ccc(Cl)cc2c1 [MSC781] | not | much less sensitive | not enhanced |  |  |
| 2.9 nM | 0.00052 s⁻¹ | 180000 M⁻¹ s⁻¹ | 32 min | 1000 nM | 220 nM | 1200 nM | C[C@H](Oc1nn2c(c(O)c1=O)C(=O)N1CCOC[C@@H]1C2)c1ccc2ccc(Cl)cc2c1 [MSC778] |  |  |  | 10–20 fold | ~10 fold |
